Test results taken from PMC8657792, “Interaction Profiles of Central Nervous System Active Drugs at Human Organic Cation Transporters 1–3 and Human Plasma Membrane Monoamine Transporter” (International Journal of Molecular Sciences, 2021).
Read-outs that look alike come from different tables or passages of the source.

Columns and labels:
hOCT1 [1] = target: T1, hOCT1 (Homo sapiens, UniProt O15245); assay: [3H]MPP+ uptake inhibition assay, HEK293 cells stably expressing hOCT1; type: cell-based
T1 construct: expressed in transfected cells
T1 sequence (O15245 1-554): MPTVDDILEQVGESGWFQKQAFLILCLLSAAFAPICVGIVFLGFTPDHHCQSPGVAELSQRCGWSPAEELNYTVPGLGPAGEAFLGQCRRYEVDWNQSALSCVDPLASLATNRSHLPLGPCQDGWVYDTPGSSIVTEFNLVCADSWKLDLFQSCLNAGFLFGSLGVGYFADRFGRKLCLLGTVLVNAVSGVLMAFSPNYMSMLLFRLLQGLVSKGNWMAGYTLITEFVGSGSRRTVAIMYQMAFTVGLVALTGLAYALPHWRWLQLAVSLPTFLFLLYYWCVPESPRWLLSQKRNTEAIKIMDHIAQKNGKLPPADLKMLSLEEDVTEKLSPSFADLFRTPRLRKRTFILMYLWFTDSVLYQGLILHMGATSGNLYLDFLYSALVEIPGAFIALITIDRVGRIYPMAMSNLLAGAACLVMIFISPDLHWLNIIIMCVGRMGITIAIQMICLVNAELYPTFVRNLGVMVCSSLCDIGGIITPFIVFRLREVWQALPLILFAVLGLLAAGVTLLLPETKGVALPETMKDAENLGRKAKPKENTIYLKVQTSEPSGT
Procedure: (§1) HEK293 cells were transfected with a plasmid, encoding the transporter of interest and an N-terminal YFP-tag, carried out using jetPRIME ^© (Polyplus Transfection; (VWR International GmbH, Vienna, Austria)) reagent (for a 10 cm dish with 1–2 × 10^6 cells in 10 mL serum containing medium at 60–80% confluency: 500 μ L jetPRIME ^© buffer, 10 μ g DNA and 20 μ L jetPRIME ^© reagent) and selection pressure maintained for two weeks [2, 54, 55]. Subsequently, 500,000 cells were FACS-sorted (fluorescence-activated cell sorting) according to expression level to establish cell lines stably expressing the protein of interest. […] For uptake inhibition assays, cells were cultured at a subconfluent (80–90% density) state in high-glucose Dulbecco’s Modified Eagle Medium (DMEM ), enriched with 10% heat-inactivated Fetal Bovine Serum (FBS) and penicillin/streptomycin (PS; 100 U × 100 mL ^−1 , each). Selection pressure was maintained by the addition of geneticin (50 mg × mL ^−1 ) at 37 ^∘ C and 5% CO 2 in a humidified incubator. At a density of 60,000 cells per well, HEK293 cells expressing the respective transporter were seeded onto poly-D-lysine-coated wells 24 h prior to uptake inhibition experiments in a final volume of 200 μ L per well.
(§2) Prior to the addition of the respective compounds, DMEM was removed from all wells and replaced with 200 μ L of Krebs-HEPES-buffer (KHB; 10 mM HEPES, 120 mM NaCl, 3 mM KCl, 2 mM CaCl 2 , 2 mM MgSO 4 and 20 mM D-glucose, pH adjusted to 7.3) at room temperature. Cells were exposed to a pre-incubation solution containing the compound of interest in the respective concentration (dissolved in Krebs-HEPES-buffer) for 10 min with a total volume of 50 μ L, which was then replaced with a 50 μ L uptake solution containing 0.05 μ M of tritiated 1-methyl-4-phenylpyridinium ([ ^3 H]MPP ^+ ) as substrate, and the compound of interest in respective concentrations, for 10 minutes each. Finally, uptake was terminated by washing with 200 μ L of ice-cold (4 ^∘ C) KHB, after which cells were lysed with 200 μ L of 1% sodium dodecyl sulphate (SDS). After transferring the solution of each well into 6 mL counting vials containing 2 mL of scintillation cocktail, the vials were measured with a beta-scintillation counter for quantification of the uptake of tritiated substrate. […] To obtain specific data, non-specific uptake was assessed in the presence of 100 μ M D22 and subtracted from the total data. The 100% values were defined as uptake in the absence of a tested substance, defining maximal uptake capacity. Inhibitions of the compound of interest were described as a percentage of the maximal uptake capacity.
(§3) Half-maximal inhibitory concentration ( IC50 ) values of each substance were calculated and plotted using GraphPad Prism 8.4.3 (GraphPad Software Inc., San Diego, CA, USA). IC50 was determined by non-linear regression, solving the equation Y=Bottom+(Top−Bottom)/(1+10^X−LogEC50) . […] All data stem from a minimum of three separate experiments (n≥ 3) executed in triplicates and are shown as mean ± SD.

hOCT2 [2] = target: T2, hOCT2 (Homo sapiens, UniProt O15244); assay: [3H]MPP+ uptake inhibition assay, HEK293 cells stably expressing hOCT2; type: cell-based
T2 construct: expressed in transfected cells
T2 sequence (O15244 1-555): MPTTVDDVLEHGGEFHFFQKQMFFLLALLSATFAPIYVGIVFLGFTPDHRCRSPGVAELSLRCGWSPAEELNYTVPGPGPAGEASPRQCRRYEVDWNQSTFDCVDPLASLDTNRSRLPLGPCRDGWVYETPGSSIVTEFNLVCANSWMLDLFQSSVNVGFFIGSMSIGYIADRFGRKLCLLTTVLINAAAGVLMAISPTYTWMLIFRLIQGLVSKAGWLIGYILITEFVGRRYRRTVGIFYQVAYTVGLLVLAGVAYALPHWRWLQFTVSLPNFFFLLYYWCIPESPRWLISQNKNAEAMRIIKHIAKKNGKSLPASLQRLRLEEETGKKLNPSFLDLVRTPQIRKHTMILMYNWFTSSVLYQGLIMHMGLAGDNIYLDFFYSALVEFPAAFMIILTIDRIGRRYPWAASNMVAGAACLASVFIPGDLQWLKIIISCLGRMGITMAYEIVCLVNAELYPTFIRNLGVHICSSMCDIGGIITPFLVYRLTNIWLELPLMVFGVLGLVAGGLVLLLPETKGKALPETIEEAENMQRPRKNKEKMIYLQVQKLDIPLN
Procedure: as §1, §2, §3

hPMAT [3] = target: T3, hPMAT (Homo sapiens, UniProt Q7RTT9); assay: [3H]MPP+ uptake inhibition assay, HEK293 cells stably expressing hPMAT; type: cell-based
T3 construct: expressed in transfected cells
T3 sequence (Q7RTT9 1-530): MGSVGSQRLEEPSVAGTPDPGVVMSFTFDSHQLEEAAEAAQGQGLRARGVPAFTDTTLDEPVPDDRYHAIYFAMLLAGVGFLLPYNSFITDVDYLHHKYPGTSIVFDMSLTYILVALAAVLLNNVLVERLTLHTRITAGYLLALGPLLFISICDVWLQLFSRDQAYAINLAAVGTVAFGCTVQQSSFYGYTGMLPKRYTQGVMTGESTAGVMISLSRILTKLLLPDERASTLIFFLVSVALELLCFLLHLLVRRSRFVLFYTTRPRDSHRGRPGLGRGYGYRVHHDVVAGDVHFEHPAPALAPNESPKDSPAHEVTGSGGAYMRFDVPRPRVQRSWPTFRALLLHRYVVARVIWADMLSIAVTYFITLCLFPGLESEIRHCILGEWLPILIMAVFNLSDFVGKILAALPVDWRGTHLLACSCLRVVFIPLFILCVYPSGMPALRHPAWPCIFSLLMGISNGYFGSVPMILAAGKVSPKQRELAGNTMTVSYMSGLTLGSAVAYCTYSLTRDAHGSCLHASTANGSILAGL
Procedure: as §1, §2, §3

hOCT2 [4] = target: T2, hOCT2; conditions: Table S1, supplementary reference list, cited from earlier work; for IC50: read-out: IC50 literature hOCT2; for Ki: read-out: IC50 literature hOCT2 (Ki), Ki values
hPMAT [5] = target: T3, hPMAT; conditions: Table S1, supplementary reference list, read-out: IC50 literature hPMAT, cited from earlier work
hOCT1 [6] = target: T1, hOCT1; conditions: Table S1, supplementary reference list, cited from earlier work; for IC50: read-out: IC50 literature hOCT1; for Ki: read-out: IC50 literature hOCT1 (Ki), Ki values
hOCT3 [7] = target: T4, hOCT3 (Homo sapiens, UniProt O75751); conditions: Table S1, supplementary reference list, cited from earlier work; for Ki: read-out: IC50 literature hOCT3 (Ki), Ki values
T4 construct: expressed in transfected cells
T4 sequence (O75751 1-556): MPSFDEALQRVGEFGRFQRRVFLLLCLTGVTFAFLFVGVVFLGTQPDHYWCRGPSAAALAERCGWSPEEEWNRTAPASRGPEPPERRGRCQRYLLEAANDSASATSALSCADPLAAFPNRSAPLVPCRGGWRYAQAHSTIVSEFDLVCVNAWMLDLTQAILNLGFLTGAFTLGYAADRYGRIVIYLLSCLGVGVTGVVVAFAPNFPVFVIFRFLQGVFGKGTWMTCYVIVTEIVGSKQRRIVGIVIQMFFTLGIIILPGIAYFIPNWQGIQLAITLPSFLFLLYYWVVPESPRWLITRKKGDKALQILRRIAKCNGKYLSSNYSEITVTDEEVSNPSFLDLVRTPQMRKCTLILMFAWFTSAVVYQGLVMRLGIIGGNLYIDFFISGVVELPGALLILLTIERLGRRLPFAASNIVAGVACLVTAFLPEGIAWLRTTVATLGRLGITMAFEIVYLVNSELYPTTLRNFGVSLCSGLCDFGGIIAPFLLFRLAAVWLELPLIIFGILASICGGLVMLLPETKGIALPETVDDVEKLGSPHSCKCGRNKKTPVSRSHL

hOCT3 [8] = target: T4, hOCT3; assay: [3H]MPP+ uptake inhibition assay, HEK293 cells stably expressing hOCT3; type: cell-based
Procedure: as §1, §2, §3

mOCT3 = tested on: mOCT3; set-up: method as in earlier work; conditions: Table S1, hOCT3 column, marked (mOCT3); supplementary reference list; read-out: IC50 literature (mOCT3); cited from earlier work

Molecule `CC(NC(C)(C)C)C(=O)c1cccc(Cl)c1` (stereo not shown) [Bupropion, bupropion] has an IC50 (hOCT1 [1]; HEK293 stably expressing hOCT1, 0.05 μM [3H]MPP+, 10 min pre-incubation, 10 min uptake, brackets in Table S1 = 95%-CI, n.s. = non-significant, read-out: IC50 hOCT1 (inhibitory potency, [3H]MPP+ uptake)) of 5.36 µM, an IC50 (hOCT2 [2]; HEK293 stably expressing hOCT2, 0.05 μM [3H]MPP+, 10 min pre-incubation, 10 min uptake, brackets in Table S1 = 95%-CI, n.s. = non-significant, read-out: IC50 hOCT2 (inhibitory potency, [3H]MPP+ uptake)) of 32.9 µM and an IC50 (hPMAT [3]; HEK293 stably expressing hPMAT, 0.05 μM [3H]MPP+, 10 min pre-incubation, 10 min uptake, brackets in Table S1 = 95%-CI, n.s. = non-significant, read-out: IC50 hPMAT (inhibitory potency, [3H]MPP+ uptake)) of 97 µM. The IC50 (hOCT2 [4]; ref 1) was 28.6 µM, the IC50 (hOCT2 [4]; ref 2) was 32.2 µM and the IC50 (hPMAT [5]; ref 3) was 115 µM. For the same molecule, the IC50 (hOCT1 [6]; ref 1) was 161 µM, the IC50 (hOCT3 [7]; ref 1, read-out: IC50 literature hOCT3) was 738 µM and the IC50 (hOCT3 [8]; HEK293 stably expressing hOCT3, 0.05 μM [3H]MPP+, 10 min pre-incubation, 10 min uptake, brackets in Table S1 = 95%-CI, n.s. = non-significant, read-out: IC50 hOCT3 (inhibitory potency, [3H]MPP+ uptake)) was 186 µM.
In the case of `CN(C)CCCC1(c2ccc(F)cc2)OCc2cc(C#N)ccc21` (stereo not shown) [Citalopram], the IC50 (hOCT2 [4]; ref 1) is listed as 115 µM, the IC50 (hPMAT [5]; ref 4) is listed as 117 µM and the IC50 (hOCT1 [6]; ref 1) is listed as 13.2 µM.
In the case of `CN1C(=O)CN=C(c2ccccc2)c2cc(Cl)ccc21` [Diazepam, diazepam], the IC50 (mOCT3) is listed as 40 µM.
In the case of `CNC(C)Cc1ccc2c(c1)OCO2` (stereo not shown) [MDMA, 3,4-methylenedioxymethamphetamine], the IC50 (hOCT1 [1]) is reported as 1.14 µM, the IC50 (hOCT2 [2]) is reported as 2.71 µM and the IC50 (hPMAT [3]) is reported as 7.77 µM. The Ki (hOCT2 [4]) was 1.63 ± 0.62 µM, the Ki (hOCT1 [6]) was 24.2 ± 9.2 µM and the Ki (hOCT3 [7]) was 73.6 ± 50.3 µM. For the same molecule, the IC50 (hOCT3 [8]) was 154 µM and the “Effect on substrate uptake by hOCT3 (in words)” value (hOCT3 [8]; [3H]MPP+ uptake, HEK293 hOCT3) was “not inhibiting uptake”.
In the case of `C[C@H](N)Cc1ccccc1` [d-Amphetamine, d-amphetamine], the IC50 (hOCT1 [1]) is reported as 8.39 µM, the IC50 (hOCT2 [2]) is reported as 2.21 µM and the IC50 (hPMAT [3]) is reported as 71.8 µM. For the same molecule, the Ki (hOCT2 [4]) was 10.5 ± 2.6 µM, the IC50 (hOCT2 [4]) was 20.3 ± 16.9 µM and the Ki (hOCT1 [6]) was 202 ± 68 µM. For the same molecule, the IC50 (hOCT1 [6]) was 96.7 ± 37 µM, the IC50 (hOCT3 [7]; marked (5-HT), read-out: IC50 literature hOCT3 (5-HT)) was 24.1 ± 70 µM and the IC50 (hOCT3 [7]; marked (DA), read-out: IC50 literature hOCT3 (DA)) was 41.5 ± 7.5 µM. For the same molecule, the Ki (hOCT3 [7]) was 460 ± 140 µM, the IC50 (hOCT3 [7]; read-out: IC50 literature hOCT3, ref 8) was 363 ± 56.4 µM and the IC50 (hOCT3 [7]; read-out: IC50 literature hOCT3, ref 9) was 42 ± 7 µM. The IC50 (hOCT3 [8]) was 337 µM.
In the case of `CCCC(C(=O)c1ccccc1)N1CCCC1` (stereo not drawn) [α-PVP], the IC50 (hOCT2 [4]; ref 13) is given as 5.62 µM, the IC50 (hOCT2 [4]; ref 14) is given as 17.5 ± 2.5 µM and the IC50 (hPMAT [5]; ref 13) is given as 13.4 µM. For the same molecule, the IC50 (hOCT1 [6]; ref 13) was 1.31 µM, the IC50 (hOCT3 [7]; ref 13, read-out: IC50 literature hOCT3) was 1630 µM and the IC50 (hOCT3 [7]; ref 14, read-out: IC50 literature hOCT3) was over 1000 µM.
